Patent publication US5138069A (E. I. Du Pont de Nemours and Company, priority 1988, dated 1992)
Read-outs that look alike come from different tables or passages of the source.

Columns and labels:
[1] = target: AII receptor; test: Angiotensin II receptor binding (displacement of 3H-AII); settings: read-out: Angiotensin II Receptor Binding IC50, rat adrenal cortical microsomes, 2 nM 3H-AII, 1 hour, room temperature
Summary of the method: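 The receptor source was rat adrenal cortical microsomes in Tris buffer, incubated with 2 nM ³H-AII plus or minus test compound for 1 h at room temperature. Bound and free ligand were separated by rapid filtration on glass-fibre filters. Filter-bound ³H-AII was counted by scintillation.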

[2] = system: Renal Hypertensive Rats; test: Antihypertensive effects in renal hypertensive rats; assay type: in vivo; settings: Rattus norvegicus; for minimal effective dose at 10 mg/kg / minimal effective dose at 100 mg/kg: Table 25; for minimal effective dose at 10 mg/kg / minimal effective dose at 3 mg/kg: intravenous; for minimal effective dose at 10 mg/kg: 10 mg/kg or less; for minimal effective dose at 100 mg/kg / minimal effective dose at 30 mg/kg: oral; for minimal effective dose at 100 mg/kg: 100 mg/kg or less; for minimal effective dose at 3 mg/kg / minimal effective dose at 30 mg/kg: Table 26
Summary of the method: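 Renal hypertensive rats (renin-driven AII elevation) dosed orally at 100 mg/kg and/or i.v. via jugular cannula at 10 mg/kg; a second set used 30 mg/kg oral and 3 mg/kg i.v. Arterial pressure recorded continuously via carotid cannula and compared with pretreatment levels.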

[3] = Table 25, tested as sodium salt

## CCCCc1nc(Cl)c(CO)n1Cc1ccc(-c2ccccc2C(=O)NOCc2ccccc2)cc1 [Example 181]
[1]; Table 25
  IC50: 4900 nM
[2]
  minimal effective dose at 10 mg/kg: < 10 mg/kg
  minimal effective dose at 100 mg/kg: > 100 mg/kg

## CCCCc1nc(Cl)c(CO)n1Cc1ccc(-c2ccccc2C(=O)NO)cc1 [Example 182]
[1]; Table 25
  IC50: 4100 nM
[2]
  minimal effective dose at 10 mg/kg: < 10 mg/kg
  minimal effective dose at 100 mg/kg: > 100 mg/kg

## CCCCc1nc(Cl)c(CC(=O)O)n1Cc1ccc(OCc2ccccc2C(=O)O)cc1 [Example 192, 1-[4-(2-Carboxybenzyloxy)benzyl]-2-butyl-4-chloroimidazole-5-acetic acid]
[1]; Table 25
  IC50: 2300 nM
[2]
  minimal effective dose at 100 mg/kg: > 100 mg/kg

## CCCCc1nc(Cl)c(Cn2cncn2)n1Cc1ccc(C(=O)c2ccccc2C(=O)O)cc1 [Example 204, 2-Butyl-1-[4-(2-Carboxybenzoyl)benzyl]-4-chloro-5-((1,2,4-triazol-1-yl)methyl)imidazole]
[1]; [3]
  IC50: 1900 nM
[2]; tested as sodium salt
  minimal effective dose at 10 mg/kg: < 10 mg/kg
  minimal effective dose at 100 mg/kg: > 100 mg/kg

## CCCCc1nc(Cl)c(Cc2nnn[nH]2)n1Cc1ccc(C(=O)c2ccccc2C(=O)O)cc1 [Example 208, 2-Butyl-1-[4-(2-carboxybenzoyl)benzyl]-4-chloro-5-[(1H-tetrazol-5-yl)methyl]imidazole]
[1]; [3]
  IC50: 330 nM
[2]; tested as sodium salt
  minimal effective dose at 10 mg/kg: < 10 mg/kg
  minimal effective dose at 100 mg/kg: > 100 mg/kg

## CCCCc1nc(Cl)c(CNS(C)(=O)=O)n1Cc1ccc(C(=O)c2ccccc2C(=O)O)cc1 [Example 215]
[1]; [3]
  IC50: 200 nM
[2]; tested as sodium salt
  minimal effective dose at 10 mg/kg: < 10 mg/kg
  minimal effective dose at 100 mg/kg: > 100 mg/kg

## CCCCc1nc(Cl)c(/C=C/CO)n1Cc1ccc(NC(=O)c2ccccc2C(=O)O)cc1 [Example 227, 3-[1-(4-(2-Carboxybenzamido)-benzyl)-2-butyl-4-chloroimidazol-5-yl]-propen-1-ol, E isomer]
[1]; Table 25
  IC50: 110 nM
[2]
  minimal effective dose at 10 mg/kg: < 10 mg/kg

## CCCCc1nc(Cl)c(/C=C/C(C)O)n1Cc1ccc(-c2ccccc2C(=O)OC)cc1 (stereo not drawn) [Example 229, 4-[1-(2'-Carbomethoxybiphenyl-4-yl)methyl-2-butyl-4-chloroimidazol-5-yl]-3-buten-2-ol, E isomer]
[1]; Table 25
  IC50: 2100 nM
[2]
  minimal effective dose at 10 mg/kg: < 10 mg/kg
  minimal effective dose at 100 mg/kg: < 100 mg/kg

## CCCCc1nc(Cl)c(/C=C/c2ccccc2)n1Cc1ccc(NC(=O)c2ccccc2C(=O)O)cc1 [Example 230, 1-[4-(2-Carboxybenzamido)-benzyl]-2-butyl-4-chloro-5-(2-phenylethen-1-yl)imidazole, E isomer]
[1]; Table 25
  IC50: 1600 nM
[2]
  minimal effective dose at 10 mg/kg: < 10 mg/kg

## CCCCc1nc(Cl)c(/C=C/COC(C)=O)n1Cc1ccc(NC(=O)c2ccccc2NS(=O)(=O)C(F)(F)F)cc1 [Example 232, 3-[1-(4-((N-Trifluoromethanesulfonyl)-anthranilamido)benzyl)-2-butyl-4-chloroimidazol-5-yl]-3-propen-1-ol acetate, E isomer]
[1]; Table 25
  IC50: 510 nM
[2]
  minimal effective dose at 10 mg/kg: < 10 mg/kg

## CCCCc1nc(Cl)c(/C=C/CO)n1Cc1ccc(NC(=O)c2ccccc2NS(=O)(=O)C(F)(F)F)cc1 [Example 233, 3-[1-(4-((N-trifluoromethanesulfonyl)-anthranilamido)benzyl)-2-butyl-4-chloroimidazol-5-yl]-propen-1-ol, E isomer]
[1]; Table 25
  IC50: 600 nM
[2]
  minimal effective dose at 10 mg/kg: < 10 mg/kg
  minimal effective dose at 100 mg/kg: < 100 mg/kg

## CCCCc1nc(Cl)c(CCC(=O)OC)n1Cc1ccc(NC(=O)c2ccccc2C(=O)O)cc1 [Example 234, 3-[2-Butyl-4-chloro-1-(4-(2-carboxybenzamido)benzyl)imidazol-5-yl]-propanoic acid methyl ester]
[1]; Table 25
  IC50: 64 nM
[2]
  minimal effective dose at 10 mg/kg: < 10 mg/kg
  minimal effective dose at 100 mg/kg: > 100 mg/kg

## CCCCc1nc(Cl)c(CCC(=O)OC)n1Cc1ccc(NC(=O)c2ccccc2NS(=O)(=O)C(F)(F)F)cc1 [Example 235, 3-[2-Butyl-4-chloro-1-(4-((N-trifluoromethanesulfonyl)anthranilamido)benzyl)imidazol-5-yl]-propanoic acid methyl ester]
[1]; Table 25
  IC50: 160 nM
[2]
  minimal effective dose at 10 mg/kg: < 10 mg/kg
  minimal effective dose at 100 mg/kg: > 100 mg/kg

## CCCCc1nc(Cl)c(CC(C)C(=O)OC(C)C)n1Cc1ccc(NC(=O)c2ccccc2NS(=O)(=O)C(F)(F)F)cc1 (stereo not drawn) [Example 237, 3-[1-(4-((N-trifluoromethanesulfonyl)anthranilamido)benzyl)-2-butyl-4-chlorimidazol-5-yl]-2-methylpropanoic acid, isopropyl ester]
[1]; Table 25
  IC50: 120 nM
[2]
  minimal effective dose at 10 mg/kg: < 10 mg/kg
  minimal effective dose at 100 mg/kg: > 100 mg/kg

## CCCCc1nc(Cl)c(C(=O)O)n1Cc1ccc(-c2ccccc2C(=O)O)cc1 [Example 240, 1-[(2'-Carboxybiphenyl-4-yl)methyl]-2-butyl-4-chloroimidazole-5-carboxylicacid]
[1]; Table 25
  IC50: 92 nM
[2]
  minimal effective dose at 10 mg/kg: < 10 mg/kg

## CCCCc1nc(C(F)(F)F)c(C(=O)O)n1Cc1ccc(-c2ccccc2-c2nn[nH]n2)cc1 [Example 240A]
[1]; Table 26
  IC50: 150 nM
[2]
  minimal effective dose at 3 mg/kg: < 3 mg/kg
  minimal effective dose at 30 mg/kg: < 30 mg/kg

## CCCCc1nc(Cl)c(/C=C/C(=O)OC)n1Cc1ccc(NC(=O)c2ccccc2C(=O)O)cc1 [Example 242]
[1]; Table 25
  IC50: 270 nM
[2]
  minimal effective dose at 10 mg/kg: < 10 mg/kg

## CCCCc1nc(Cl)c(CCC(C)=O)n1Cc1ccc(NC(=O)c2ccccc2C(=O)O)cc1 [Example 244]
[1]; Table 25
  IC50: 88 nM
[2]
  minimal effective dose at 10 mg/kg: < 10 mg/kg

## CCCCc1nc(Cl)c(CC(C)C(=O)OC(C)C)n1Cc1ccc(NC(=O)c2ccccc2C(=O)O)cc1 (stereo not drawn) [Example 246]
[1]; Table 25
  IC50: 120 nM
[2]
  minimal effective dose at 10 mg/kg: < 10 mg/kg

## CCCCc1nc(Cl)c(CCCOC(C)=O)n1Cc1ccc(NC(=O)c2ccccc2NS(=O)(=O)C(F)(F)F)cc1 [Example 248]
[1]; Table 25
  IC50: 250 nM
[2]
  minimal effective dose at 10 mg/kg: < 10 mg/kg

## CCCCc1nc(Cl)c(CCC(=O)N2CCOCC2)n1Cc1ccc(NC(=O)c2ccccc2C(=O)O)cc1 [Example 249]
[1]; Table 25
  IC50: 72 nM
[2]
  minimal effective dose at 10 mg/kg: < 10 mg/kg
  minimal effective dose at 100 mg/kg: > 100 mg/kg

## CCCCc1nc(Cl)c(CCC(=O)N2CCOCC2)n1Cc1ccc(NC(=O)c2ccccc2NS(=O)(=O)C(F)(F)F)cc1 [Example 250]
[1]; Table 25
  IC50: 120 nM
[2]
  minimal effective dose at 10 mg/kg: < 10 mg/kg
  minimal effective dose at 100 mg/kg: > 100 mg/kg

## CCCc1nc(Cl)c(C(=O)O)n1Cc1ccc(-c2ccccc2-c2nn[nH]n2)cc1 [Example 251A]
[1]; Table 26
  IC50: 45 nM
[2]
  minimal effective dose at 3 mg/kg: < 3 mg/kg
  minimal effective dose at 30 mg/kg: < 30 mg/kg

## CCCCc1nc(Cl)c(CCC(=O)O)n1Cc1ccc(-c2ccccc2C(=O)O)cc1 [Example 264]
[1]; Table 25
  IC50: 250 nM
[2]
  minimal effective dose at 10 mg/kg: < 10 mg/kg
  minimal effective dose at 100 mg/kg: < 100 mg/kg

## CCCc1nc(C(F)(F)F)c(C(=O)O)n1Cc1ccc(-c2ccccc2-c2nn[nH]n2)cc1 [Example 265A]
[1]; Table 26
  IC50: 1100 nM
[2]
  minimal effective dose at 3 mg/kg: < 3 mg/kg
  minimal effective dose at 30 mg/kg: < 30 mg/kg

## CCCCc1nc(C(F)(F)C(F)(F)F)c(C(=O)O)n1Cc1ccc(-c2ccccc2-c2nn[nH]n2)cc1 [Example 265B]
[1]; Table 26
  IC50: 1400 nM
[2]
  minimal effective dose at 3 mg/kg: < 3 mg/kg
  minimal effective dose at 30 mg/kg: < 30 mg/kg

## CCCc1nc(C(F)(F)F)c(C(=O)O)n1Cc1ccc(-c2ccccc2C(=O)O)cc1 [Example 265D]
[1]; Table 26
  IC50: 1100 nM
[2]
  minimal effective dose at 3 mg/kg: < 3 mg/kg

## CCCc1nc(C(F)(F)C(F)(F)F)c(C(=O)O)n1Cc1ccc(-c2ccccc2C(=O)O)cc1 [Example 265E]
[1]; Table 26
  IC50: 1600 nM
[2]
  minimal effective dose at 3 mg/kg: < 3 mg/kg

## CCCCc1nc(Cl)c(CCCC(=O)O)n1Cc1ccc(-c2ccccc2C(=O)O)cc1 [Example 265]
[1]; Table 25
  IC50: 270 nM
[2]
  minimal effective dose at 10 mg/kg: < 10 mg/kg
  minimal effective dose at 100 mg/kg: < 100 mg/kg

## CCC/C=C\c1nc(Cl)c(CO)n1Cc1ccc(-c2ccccc2C(=O)O)cc1 [Example 266, 1-[(2-Carboxybiphenyl-4-yl)-methyl]-4-chloro-5-hydroxymethyl-2-(cis-pent-1-en-1-yl)imidazole]
[1]; Table 25
  IC50: 2300 nM
[2]
  minimal effective dose at 10 mg/kg: < 10 mg/kg

## CCCCc1nc(Cl)c(CCCF)n1Cc1ccc(-c2ccccc2C(=O)O)cc1 [Example 292]
[1]; Table 25
  IC50: 700 nM
[2]
  minimal effective dose at 10 mg/kg: < 10 mg/kg
  minimal effective dose at 100 mg/kg: < 100 mg/kg

## CCCCc1nc(C(F)(F)F)c(C(=O)OCOC(=O)C(C)(C)C)n1Cc1ccc(-c2ccccc2-c2nn[nH]n2)cc1 [Example 314A]
[1]; Table 26
  IC50: 64 nM
[2]
  minimal effective dose at 3 mg/kg: < 3 mg/kg
  minimal effective dose at 30 mg/kg: < 30 mg/kg
